target: MMP-13 (Homo sapiens, UniProt P45452); test: EnzoLyte 520 Generic MMP Assay Kit, 5-FAM/QXL520 FRET peptide substrate; assay type: biochemical
Source text: The EnzoLyte™ 520 Generic MMP Assay Kit (AnaSpec Inc.) can detect the activity of several MMPs including MMP-1, 2, 3, 7, 8, 9, 13, and 14. This kit uses a 5-FAM/QXL™520 fluorescence resonance energy transfer (FRET) peptide as an MMP substrate.

| Structure (SMILES) | IC50 [nM] |
| --- | --- |
| CNC(=O)[C@@H](NC(=O)c1ccc(-c2ccc(OCc3ccccc3)cn2)o1)C1CCOCC1 [5-[5-(Benzyloxy)pyridin-2-yl]-N-[(1S)-2-(methylamino)-2-oxo-1-(tetrahydro-2H-pyran-4-yl)ethyl]furan-2-carboxamide] | 3 |
| CNC(=O)[C@@H](NC(=O)c1ccc(-c2ccc([N+](=O)[O-])cn2)o1)C1CCCCC1 [N-[(1S)-1-cyclohexyl-2-(methylamino)-2-oxoethyl)-5-(5-nitropyridin-2-yl)furan-2-carboxamide] | 74 |
| CNC(=O)[C@@H](NC(=O)c1ccc(-c2ccc(OCc3ccccc3)cn2)o1)C1CCCCC1 [5-[5-(Benzyloxy)pyridin-2-yl]-N-[(1S)-1-cyclohexyl-2-(methylamino)-2-oxoethyl]furan-2-carboxamide] | 10 |
| CNC(=O)[C@@H](NC(=O)c1ccc(-c2cccc(CNC(=O)c3cncc(C)c3)c2)o1)C1CCCCC1 [N-[3-(5-{[(1S)-1-cyclohexyl-2-(methylamino)-2-oxoethyl]carbamoyl}furan-2-yl)benzyl]-5-methylpyridine-3-carboxamide] | 30 |
| COC[C@H](C)NC(=O)[C@@H](NC(=O)c1ccc(-c2ccc(NC(=O)c3cccc(C)n3)cc2)o1)C1CCCCC1 [N-[4-(5-{[(1S)-1-cyclohexyl-2-{[(2S)-1-methoxypropan-2-yl]amino}-2-oxoethyl]carbamoyl}furan-2-yl)phenyl]-6-methylpyridine-2-carboxamide] | 32 |
| CNC(=O)[C@@H](NC(=O)c1ccc(-c2cccc(CNC(=O)c3cn4ccc(C)cc4n3)c2)o1)C1CCCCC1 [N-[3-(5-{[(1S)-1-cyclohexyl-2-(methylamino)-2-oxoethyl]carbamoyl}furan-2-yl)benzyl]-7-methylimidazo[1,2-a]pyridine-2-carboxamide] | 137 |
| CNC(=O)[C@@H](NC(=O)c1ccc(-c2cccc(CNC(=O)c3cccc(C#N)c3)c2)o1)C(C)C [5-{3-[(3-Cyano-benzoylamino)-methyl]-phenyl}-furan-2-carboxylic acid ((S)-2-methyl-1-methylcarbamoyl-propyl)-amide] | 160 |
| CNC(=O)[C@@H](NC(=O)c1ccc(-c2ccc(NC(=O)c3ccc(C)o3)cc2)o1)C1CCCCC1 [N-[4-(5-{[(1S)-1-cyclohexyl-2-(methylamino)-2-oxoethyl]carbamoyl}furan-2-yl)phenyl]-5-methylfuran-2-carboxamide] | 57 |
| CNC(=O)[C@@H](NC(=O)c1ccc(-c2ccc(-c3cnn(C)c3)cc2)o1)C1CCCCC1 [N-[(1S)-1-cyclohexyl-2-(methylamino)-2-oxoethyl]-5-[4-(1-methyl-1H-pyrazol-4-yl)phenyl]furan-2-carboxamide] | 25 |
| CNC(=O)[C@@H](NC(=O)c1ccc(-c2ccc(C#N)cc2)o1)C1CCCCC1 [5-(4-cyanophenyl)-N-[(1S)-1-cyclohexyl-2-(methylamino)-2-oxoethyl]furan-2-carboxamide] | 175 |
| CNC(=O)[C@@H](NC(=O)c1ccc(-c2cccc(CNC(=O)c3ccco3)c2)o1)C1CCCCC1 [N-[(1S)-1-cyclohexyl-2-(methylamino)-2-oxoethyl]-5-(3-{[(furan-2-ylcarbonyl)amino]methyl}phenyl)furan-2-carboxamide] | 75 |
| CCOc1ccc(-c2ccc(C(=O)N[C@H](C(=O)NC)C3CCCCC3)o2)nc1 [N-[(1S)-1-cyclohexyl-2-(methylamino)-2-oxoethyl]-5-(5-ethoxypyridin-2-yl)furan-2-carboxamide] | 32 |
| CNC(=O)[C@@H](NC(=O)c1ccc(-c2ccc(NC(=O)c3cncc(C)c3)cc2)o1)C1CCCCC1 [N-[4-(5-{[(1S)-1-cyclohexyl-2-(methylamino)-2-oxoethyl]carbamoyl}furan-2-yl)phenyl]-5-methylpyridine-3-carboxamide] | 150 |
| CCNC(=O)[C@@H](NC(=O)c1ccc(-c2ccc(C#N)cc2)o1)C1CCCCC1 [5-(4-cyanophenyl)-N-[(1S)-1-cyclohexyl-2-(ethylamino)-2-oxoethyl]furan-2-carboxamide] | 295 |
